Results on 37 compounds are retold here after patent publication US20250034197A1, “NUCLEOSIDE-DIPHOSPHATE-HEPTOSE COMPOUNDS FOR TREATING CONDITIONS ASSOCIATED WITH ALPK1 ACTIVITY” (PYROTECH (BEIJING) BIOTECHNOLOGY CO., LTD., priority 2021, published 2025).

By EC50 is commonly meant the midpoint of the concentration-response curve.

Bounds are passed on as bounds.

The target of this experiment is T1, ALPK1 (Homo sapiens, UniProt Q96QP1).
T1 construct: endogenous in cells; host or cells: 293T cells
T1 sequence (Q96QP1 whole entry): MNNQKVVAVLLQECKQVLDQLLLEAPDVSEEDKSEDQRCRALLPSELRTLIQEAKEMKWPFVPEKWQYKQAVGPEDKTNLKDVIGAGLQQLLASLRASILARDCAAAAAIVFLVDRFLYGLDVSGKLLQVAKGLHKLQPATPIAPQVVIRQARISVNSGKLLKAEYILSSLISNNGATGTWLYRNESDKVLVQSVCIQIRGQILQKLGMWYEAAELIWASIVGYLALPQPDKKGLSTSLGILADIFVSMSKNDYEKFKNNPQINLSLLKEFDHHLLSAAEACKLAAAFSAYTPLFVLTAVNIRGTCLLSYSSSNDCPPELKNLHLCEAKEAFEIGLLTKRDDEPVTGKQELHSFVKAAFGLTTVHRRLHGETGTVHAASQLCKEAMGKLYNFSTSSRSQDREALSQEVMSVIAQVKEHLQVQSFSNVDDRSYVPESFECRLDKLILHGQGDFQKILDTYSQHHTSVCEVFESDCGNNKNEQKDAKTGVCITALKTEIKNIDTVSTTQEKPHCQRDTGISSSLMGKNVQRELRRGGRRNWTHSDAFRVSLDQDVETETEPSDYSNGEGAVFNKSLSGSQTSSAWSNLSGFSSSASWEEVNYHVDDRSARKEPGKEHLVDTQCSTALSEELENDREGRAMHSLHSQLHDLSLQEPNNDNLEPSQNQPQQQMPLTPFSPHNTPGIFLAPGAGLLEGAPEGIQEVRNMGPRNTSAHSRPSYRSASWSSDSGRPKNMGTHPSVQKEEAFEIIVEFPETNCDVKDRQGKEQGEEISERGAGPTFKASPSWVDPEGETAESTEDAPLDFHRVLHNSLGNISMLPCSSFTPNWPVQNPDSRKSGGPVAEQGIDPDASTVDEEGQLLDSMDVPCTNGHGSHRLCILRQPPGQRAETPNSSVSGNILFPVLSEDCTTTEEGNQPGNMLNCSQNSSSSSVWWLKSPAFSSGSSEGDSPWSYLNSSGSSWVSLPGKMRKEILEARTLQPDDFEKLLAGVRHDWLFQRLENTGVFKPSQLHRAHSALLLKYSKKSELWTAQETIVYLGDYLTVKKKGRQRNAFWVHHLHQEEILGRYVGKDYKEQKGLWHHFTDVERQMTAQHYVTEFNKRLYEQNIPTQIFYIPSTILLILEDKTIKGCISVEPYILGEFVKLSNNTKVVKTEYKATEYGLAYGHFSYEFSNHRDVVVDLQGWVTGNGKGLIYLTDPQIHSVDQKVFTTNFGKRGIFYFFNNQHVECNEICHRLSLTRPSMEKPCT
The experiment can be described thus: NF-κB luciferase reporter assay in 293T cells (cellular assay). The experiment is classed as cell-based. As for the experimental part: The compounds disclosed herein activate NF-κB through ALPK1-TIFA axis as determined by the NF-κB luciferase reporter and TIFA phosphorylation. For NF-κB luciferase assay, the plasmids (pNL2.2-BII-5RE-Luc), and control vector (pRL-TK) were transfected into 293T cells with the Jetprime reagents (Polyplus). NF-κB luciferase activity was determined using the dual luciferase assay kit (Promega) according to the manufacturer's instructions. TIFA phosphorylation upon the treatment with the compounds disclosed herein described in Table 1, were assayed with immunoblotting. Briefly, for the immunoblotting assay, the 293T cells were seeded in 12-well-plates and cultured for 16 h, and treated with indicated compounds for another 2 hours. Subsequently, the cells were collected and sampled as the regular western-blotting method, immunoblotted by the TIFA phosphorylation specific antibody (ab214815, Abcam).
The EC50 of the compounds disclosed herein were determined by the NF-κB luciferase reporter assay using 293T cells described supra. Compounds with indicated concentrations were added to the culture medium of 293T and the NF-κB luciferase activity was determined using the dual luciferase assay kit (Promega) according to the manufacturer's instructions. […] These chemical entities induce strong activation of the immune regulator NF-κB.
Background: A reporter such as luciferase makes a cellular process visible.
For the compound `C#C[C@]1(O)[C@H](O)[C@@H](COP(=O)(S)OP(=O)(O)OC2OC([C@H](COC(C)=O)OC(C)=O)C(OC(C)=O)C(OC(C)=O)C2OC(C)=O)O[C@H]1n1ccc(=O)[nH]c1=O` (stereo partly shown) [Example 26E], the EC50 is over 3000 nM. Under `C=C=C[C@@]1(O)[C@H](O)[C@@H](COP(=O)(S)OP(=O)(O)OC2OC([C@@H](O)CO)C(O)C(O)C2O)O[C@H]1n1cnc2c(N)ncnc21` (single isomer, unassigned) [Example 97D] stands over 1000 nM.

With `C#C[C@@]1(O)[C@H](O)[C@@H](COP(=O)(S)OP(=O)(O)OC2OC([C@H](COC(C)=O)OC(C)=O)C(OC(C)=O)C(OC(C)=O)C2OC(C)=O)O[C@H]1n1cnc2c(N)ncnc21` (stereo partly shown) [Example 25C], the response was half-maximal at 20 nM (EC50).

As for `Nc1ncnc2c1ncn2[C@@H]1O[C@H](COP(=O)(S)OP(=O)(O)OC2OC([C@@H](O)CO)C(O)C(O)C2O)[C@@H](O)[C@H]1N1CCCC1` (stereo partly shown) [Example 37D], the EC50 was over 3000 nM.

Compound `CN(C)[C@@H]1[C@H](O)[C@@H](COP(=O)(S)OP(=O)(O)OC2OC([C@@H](O)CO)C(O)C(O)C2O)O[C@H]1n1cnc2c(N)ncnc21` (stereo partly shown) [Example 35D] gave an EC50 of 38.7 nM. As to `C=C=C[C@@]1(O)[C@H](O)[C@@H](COP(=O)(S)OP(=O)(O)OC2OC([C@H](COC(C)=O)OC(C)=O)C(OC(C)=O)C(OC(C)=O)C2OC(C)=O)O[C@H]1n1cnc2c(N)ncnc21` (stereo partly shown) [Example 97C], the EC50 worked out at 1060 nM. With `C=C[C@@]1(OC)[C@H](O)[C@@H](COP(=O)(S)OP(=O)(O)OC2OC([C@H](COC(C)=O)OC(C)=O)C(OC(C)=O)C(OC(C)=O)C2OC(C)=O)O[C@H]1n1ccc(=O)[nH]c1=O` (stereo partly shown) [Example 45C], a half-maximal response (EC50) required 9.58 nM.

For `CC(=O)OC[C@H](F)C1OC(OP(=O)(O)O[P@@](=O)(S)OC[C@H]2O[C@@H](n3cnc4c(N)ncnc43)[C@H](N(C)C)[C@@H]2O)C(OC(C)=O)C(OC(C)=O)C1OC(C)=O` (stereo partly shown) [Example 35K], the EC50 was 34.2 nM. Compound `CC(=O)OC[C@H](OC(C)=O)C1OC(OP(=O)(O)OP(=O)(S)OC[C@H]2O[C@@H](n3cnc4c(N)ncnc43)[C@H](N3CCCC3)[C@@H]2O)C(OC(C)=O)C(OC(C)=O)C1OC(C)=O` (stereo partly shown) [Example 37C] gave an EC50 of over 3000 nM. The result for `CN(C)[C@@H]1[C@H](O)[C@@H](CO[P@](=O)(S)OP(=O)(O)OC2OC([C@@H](O)CO)C(O)C(O)C2O)O[C@H]1n1cnc2c(N)ncnc21` (single isomer, unassigned) [Example 35I] reads 10.9 nM. Under `C=C[C@@]1(O)[C@H](O)[C@@H](CO[P@](=O)(S)OP(=O)(O)OC2OC([C@H](COC(C)=O)OC(C)=O)C(OC(C)=O)C(OC(C)=O)C2OC(C)=O)O[C@H]1n1cnc2c(N)ncnc21` (single isomer, unassigned) [Example 31O] stands 21 nM; under `C=C[C@@]1(O)[C@H](O)[C@@H](CO[P@@](=O)(S)OP(=O)(O)OC2OC([C@H](COC(C)=O)OC(C)=O)C(OC(C)=O)C(OC(C)=O)C2OC(C)=O)O[C@H]1n1cnc2c(N)ncnc21` (single isomer, unassigned) [Example 31P], 7.23 nM; under `C#C[C@@]1(O)[C@H](O)[C@@H](COP(=O)(S)OP(=O)(O)OC2OC([C@H](COC(C)=O)OC(C)=O)C(OC(C)=O)C(OC(C)=O)C2OC(C)=O)O[C@H]1n1ccc(=O)[nH]c1=O` (stereo partly shown) [Example 26C], 45.5 nM. The compound `C=C[C@@]1(OC)[C@H](O)[C@@H](COP(=O)(S)OP(=O)(O)OC2OC([C@H](COC(C)=O)OC(C)=O)C(OC(C)=O)C(OC(C)=O)C2OC(C)=O)O[C@@H]1n1ccc(=O)[nH]c1=O` (stereo in doubt) [Example 45E] displayed an EC50 of 7.77 nM.

Consider `CC(=O)OC[C@H](OC(C)=O)C1OC(OP(=O)(O)OP(=O)(S)OC[C@H]2O[C@@H](n3cnc4c(N)ncnc43)[C@H](N)[C@@H]2O)C(OC(C)=O)C(OC(C)=O)C1OC(C)=O` (stereo partly shown) [Example 33C], for which the EC50 was 40.2 nM. Compared with the last compound, the EC50 is about 5.2-fold higher. As to `C#C[C@@]1(O)[C@H](O)[C@@H](COP(=O)(S)OP(=O)(O)OC2OC([C@H](COC(C)=O)OC(C)=O)C(OC(C)=O)C(OC(C)=O)C2OC(C)=O)O[C@H]1c1csc2c(N)ncnc12` (stereo partly shown) [Example 264C], the midpoint of the response, the EC50, lay at 48.3 nM. The EC50 values of the last two compounds are within 1.5-fold of each other. The result for `C=C[C@@]1(O)[C@H](O)[C@@H](COP(=O)(S)OP(=O)(O)OC2OC([C@H](COC(C)=O)OC(C)=O)C(OC(C)=O)C(OC(C)=O)C2OC(C)=O)O[C@H]1c1coc2c(N)ncnc12` (stereo partly shown) [Example 125C] reads 2.89 nM; that for `CS[C@@H]1[C@H](O)[C@@H](COP(=O)(S)OP(=O)(O)OC2OC([C@H](COC(C)=O)OC(C)=O)C(OC(C)=O)C(OC(C)=O)C2OC(C)=O)O[C@H]1n1ccc(=O)[nH]c1=O` (stereo partly shown) [Example 262C], 36.3 nM; that for `CO[C@@H]1[C@H](O)[C@@H](COP(=O)(S)OP(=O)(O)OC2OC([C@H](COC(C)=O)OC(C)=O)C(OC(C)=O)C(OC(C)=O)C2OC(C)=O)O[C@H]1c1cnc2c(N)ncnn12` (stereo partly shown) [Example 322C], 6.76 nM. `C=C[C@@]1(N=[N+]=[N-])[C@H](O)[C@@H](COP(=O)(S)OP(=O)(O)OC2OC([C@H](COC(C)=O)OC(C)=O)C(OC(C)=O)C(OC(C)=O)C2OC(C)=O)O[C@H]1n1ccc(=O)[nH]c1=O` (stereo partly shown) [Example 108C] came in with an EC50 of over 3000 nM. For the compound `C#C[C@@]1(F)[C@H](O)[C@@H](COP(=O)(S)OP(=O)(O)OC2OC([C@H](COC(C)=O)OC(C)=O)C(OC(C)=O)C(OC(C)=O)C2OC(C)=O)O[C@H]1n1ccc(=O)[nH]c1=O` (stereo partly shown) [Example 22C], the EC50 stood at 49.1 nM. The result for `C=C[C@@]1(O)[C@H](O)[C@@H](COP(=O)(S)OP(=O)(O)OC2OC([C@H](COC(C)=O)OC(C)=O)C(OC(C)=O)C(OC(C)=O)C2OC(C)=O)O[C@H]1c1cnn2c(N)ncnc12` (stereo partly shown) [Example 128C] reads 3.62 nM; that for `CC(=O)OC[C@H](OC(C)=O)C1OC(OP(=O)(O)OP(=O)(S)OC[C@H]2O[C@@H](n3ccc(=O)[nH]c3=O)[C@](C)(N)[C@@H]2O)C(OC(C)=O)C(OC(C)=O)C1OC(C)=O` (stereo partly shown) [Example 112C], 360 nM.

As to `C=C[C@@]1(O)[C@H](O)[C@@H](COP(=O)(OP(=O)(O)OC2OC([C@H](COC(C)=O)OC(C)=O)C(OC(C)=O)C(OC(C)=O)C2OC(C)=O)SCOC(=O)C(C)C)O[C@H]1n1cnc2c(N)ncnc21` (stereo partly shown) [Example 31K], the response was half-maximal at 57.6 nM (EC50). The result for `C=C[C@@]1(O)[C@H](O)[C@@H](COP(=O)(OP(=O)(O)OC2OC([C@H](COC(C)=O)OC(C)=O)C(OC(C)=O)C(OC(C)=O)C2OC(C)=O)SCOC(=O)OC(C)C)O[C@H]1n1cnc2c(N)ncnc21` (stereo partly shown) [Example 31L] reads 13.8 nM. `CC(=O)OC[C@H](OC(C)=O)C1OC(OP(=O)(O)O[P@@](=O)(S)OC[C@H]2O[C@@H](n3cnc4c(N)ncnc43)[C@H](N(C)C)[C@@H]2O)C(OC(C)=O)C(OC(C)=O)C1OC(C)=O` (single isomer, unassigned) [Example 35G] displayed an EC50 of 16.9 nM. The EC50 values of the last two compounds are within 1.5-fold of each other. In turn, `C#C[C@@]1(F)[C@H](O)[C@@H](COP(=O)(S)OP(=O)(O)OC2OC([C@H](COC(C)=O)OC(C)=O)C(OC(C)=O)C(OC(C)=O)C2OC(C)=O)O[C@H]1n1cnc2c(N)ncnc21` (stereo partly shown) [Example 21C] yielded an EC50 of 15.2 nM. This EC50 and that of the compound before are within 1.5-fold of each other.

For `C=C=C[C@@]1(O)[C@H](O)[C@@H](COP(=O)(S)OP(=O)(O)OC2OC([C@H](COC(C)=O)OC(C)=O)C(OC(C)=O)C(OC(C)=O)C2OC(C)=O)O[C@H]1n1ccc(=O)[nH]c1=O` (stereo partly shown) [Example 98C], the EC50 was 2310 nM. This EC50 is about 150-fold higher than that of the compound before. Consider `CN[C@@H]1[C@H](O)[C@@H](COP(=O)(S)OP(=O)(O)OC2OC([C@H](COC(C)=O)OC(C)=O)C(OC(C)=O)C(OC(C)=O)C2OC(C)=O)O[C@H]1n1cnc2c(N)ncnc21` (stereo partly shown) [Example 34C], for which the EC50 stood at 345 nM. The result for `CC(=O)OC[C@H](OC(C)=O)C1OC(OP(=O)(O)O[P@](=O)(S)OC[C@H]2O[C@@H](n3cnc4c(N)ncnc43)[C@H](N(C)C)[C@@H]2O)C(OC(C)=O)C(OC(C)=O)C1OC(C)=O` (single isomer, unassigned) [Example 35H] reads 16.7 nM. On to `C=C[C@@]1(O)[C@H](O)[C@@H](COP(=O)(S)OP(=O)(O)OC2OC([C@H](COC(=O)CC)OC(C)=O)C(OC(C)=O)C(OC(C)=O)C2OC(C)=O)O[C@H]1n1cnc2c(N)ncnc21` (stereo partly shown) [Example 31H], for which a half-maximal response (EC50) required 0.15 nM. In the case of `C=C[C@@]1(O)[C@H](O)[C@@H](COP(=O)(S)OP(=O)(O)OC2OC([C@H](COC(C)=O)OC(C)=O)C(OC(C)=O)C(OC(C)=O)C2OC(C)=O)O[C@H]1c1csc2c(N)ncnc12` (stereo partly shown) [Example 265C], the EC50 stood at 45.4 nM.

The compound `CC(=O)N[C@@H]1[C@H](O)[C@@H](COP(=O)(S)OP(=O)(O)OC2OC([C@H](COC(C)=O)OC(C)=O)C(OC(C)=O)C(OC(C)=O)C2OC(C)=O)O[C@H]1n1cnc2c(N)ncnc21` (stereo partly shown) [Example 33E] yielded an EC50 of 434 nM. The result for `CN(C)[C@@H]1[C@H](O)[C@@H](COP(=O)(S)OP(=O)(O)OC2OC([C@@H](O)CO)C(O)C(O)C2O)O[C@H]1n1ccc(=O)[nH]c1=O` (stereo partly shown) [Example 40D] reads 713 nM; that for `CN(C)[C@@H]1[C@H](O)[C@@H](CO[P@@](=O)(S)OP(=O)(O)OC2OC([C@@H](O)CO)C(O)C(O)C2O)O[C@H]1n1cnc2c(N)ncnc21` (single isomer, unassigned) [Example 35J], 10.3 nM. The compound `C=C[C@@]1(O)[C@H](O)[C@@H](COP(=O)(S)OP(=O)(O)OC2OC([C@H](COC(C)=O)OC(C)=O)C(OC(C)=O)C(OC(C)=O)C2OC(C)=O)O[C@H]1c1csc(C(N)=O)c1N` (stereo partly shown) [Example 126C] came in with an EC50 of 231 nM. Compound `CC(=O)OC[C@H](OC(C)=O)C1OC(OP(=O)(O)OP(=O)(S)OC[C@H]2O[C@@H](n3cnc4c(N)ncnc43)[C@H](N3CCC3)[C@@H]2O)C(OC(C)=O)C(OC(C)=O)C1OC(C)=O` (stereo partly shown) [Example 36C] gave an EC50 of 1620 nM.
